# Data from ChEMBL document CHEMBL1201862, “PubChem BioAssay data set” (2004).
#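 Assay format: 96-well plates, 48-hour exposure. GI50 marks 50% less growth.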 Calls of active or inactive are those of the source. Cut-off read from the data, not from the text of the source: active = GI50 up to about 1.1 µM and inactive = higher.
# Tests used:
# Test in all cases: growth of human tumour cells (NCI), 48 h
# 786-0 = tested on: 786-0
# A498 = tested on: A498
# A549 = tested on: A549
# CAKI-1 = tested on: CAKI-1
# CCRF-CEM = tested on: CCRF-CEM
# COLO 205 = tested on: COLO 205
# DLD-1 = tested on: DLD-1
# DMS-114 = tested on: DMS-114
# DMS-273 = tested on: DMS-273
# EKVX = tested on: EKVX
# HCT-116 = tested on: HCT-116
# HCT-15 = tested on: HCT-15
# HL-60 = tested on: HL-60
# HOP-62 = tested on: HOP-62
# HOP-92 = tested on: HOP-92
# HT-29 = tested on: HT-29
# IGROV-1 = tested on: IGROV-1
# K562 = tested on: K562
# KM-20L2 = tested on: KM-20L2
# KM12 = tested on: KM12
# LOX IMVI = tested on: LOX IMVI
# LXFL 529 = tested on: LXFL 529
# M14 = tested on: M14
# M19-MEL = tested on: M19-MEL
# MOLT-4 = tested on: MOLT-4
# Malme-3M = tested on: Malme-3M
# NCI-H226 = tested on: NCI-H226
# NCI-H23 = tested on: NCI-H23
# NCI-H460 = tested on: NCI-H460
# NCI-H522 = tested on: NCI-H522
# OVCAR-3 = tested on: OVCAR-3
# OVCAR-4 = tested on: OVCAR-4
# OVCAR-5 = tested on: OVCAR-5
# OVCAR-8 = tested on: OVCAR-8
# RPMI-8226 = tested on: RPMI-8226
# RXF 393 = tested on: RXF 393
# RXF 631 = tested on: RXF 631
# SF-268 = tested on: SF-268
# SF-295 = tested on: SF-295
# SF-539 = tested on: SF-539
# SK-MEL-5 = tested on: SK-MEL-5
# SK-OV-3 = tested on: SK-OV-3
# SN12C = tested on: SN12C
# SNB-19 = tested on: SNB-19
# SNB-75 = tested on: SNB-75
# SNB-78 = tested on: SNB-78
# SR = tested on: SR
# SW-620 = tested on: SW-620
# TK-10 = tested on: TK-10
# U-251 = tested on: U-251
# UACC-257 = tested on: UACC-257
# UACC-62 = tested on: UACC-62
# UO-31 = tested on: UO-31
# XF498 = tested on: XF498
compound,measurement,setting,value
COc1cc2c3c(c1OC)-c1c(ccc4c1OCO4)CC3(C#N)N(C(=O)c1ccccc1)CC2 (centres undefined),GI50,786-0,30.7 µM (inactive)
same,GI50,A498,> 100 µM (inactive)
same,GI50,A549,64.3 µM (inactive)
same,GI50,CAKI-1,36.6 µM (inactive)
same,GI50,CCRF-CEM,51.3 µM (inactive)
same,GI50,COLO 205,> 100 µM (inactive)
same,GI50,DLD-1,52.2 µM (inactive)
same,GI50,DMS-114,45.5 µM (inactive)
same,GI50,DMS-273,49.7 µM (inactive)
same,GI50,EKVX,74.1 µM (inactive)
same,GI50,HCT-116,42.2 µM (inactive)
same,GI50,HCT-15,39.7 µM
same,GI50,HL-60,> 100 µM (inactive)
same,GI50,HOP-62,38.5 µM (inactive)
same,GI50,HOP-92,26.4 µM (inactive)
same,GI50,HT-29,> 100 µM (inactive)
same,GI50,IGROV-1,> 100 µM (inactive)
same,GI50,K562,54.6 µM (inactive)
same,GI50,KM-20L2,> 100 µM (inactive)
same,GI50,KM12,> 100 µM (inactive)
same,GI50,LOX IMVI,43 µM (inactive)
same,GI50,LXFL 529,73.8 µM (inactive)
same,GI50,M14,> 100 µM (inactive)
same,GI50,M19-MEL,67.6 µM (inactive)
same,GI50,MOLT-4,> 100 µM (inactive)
same,GI50,Malme-3M,51.2 µM (inactive)
same,GI50,NCI-H226,37.7 µM (inactive)
same,GI50,NCI-H23,52.8 µM (inactive)
same,GI50,NCI-H460,98.9 µM (inactive)
same,GI50,NCI-H522,> 100 µM (inactive)
same,GI50,OVCAR-3,45.3 µM (inactive)
same,GI50,OVCAR-4,21 µM (inactive)
same,GI50,OVCAR-5,> 100 µM (inactive)
same,GI50,OVCAR-8,44.5 µM (inactive)
same,GI50,RPMI-8226,8.91 µM (inactive)
same,GI50,RXF 393,36.1 µM (inactive)
same,GI50,RXF 631,49.4 µM (inactive)
same,GI50,SF-268,43.2 µM (inactive)
same,GI50,SF-295,41.4 µM (inactive)
same,GI50,SF-539,28.1 µM (inactive)
same,GI50,SK-MEL-5,> 100 µM (inactive)
same,GI50,SK-OV-3,50.5 µM (inactive)
same,GI50,SN12C,51.2 µM (inactive)
same,GI50,SNB-19,61.5 µM (inactive)
same,GI50,SNB-75,21.2 µM (inactive)
same,GI50,SNB-78,66.4 µM (inactive)
same,GI50,SR,> 100 µM (inactive)
same,GI50,SW-620,> 100 µM (inactive)
same,GI50,TK-10,> 100 µM (inactive)
same,GI50,U-251,36.4 µM (inactive)
same,GI50,UACC-257,57.7 µM (inactive)
same,GI50,UACC-62,42 µM (inactive)
same,GI50,UO-31,99.8 µM (inactive)
same,GI50,XF498,23 µM (inactive)
